Entries after “also recorded” stand apart in the source; their conditions may differ.
Tested on: 4T1 subcutaneous solid tumor
Test: In vivo fluorescence imaging of 4T1 tumor-bearing mice
Parameters: species or system BALB/c mice
Source text: The prospective in vitro results prompted us to further explore in vivo application possibility of QTCy7-Ac, and a solid tumor model of BALB/c mice was established by inoculating 4T1 cells subcutaneously under the armpit (Figure 10a). All the BALB/c mice were purchased from Liaoning Changsheng Biotechnology Co., Ltd., and the animal experiments were approved by the Local Scientific Research Ethics Review Committee of the Animal Ethics Committee of Dalian University of Technology (ID no. // Ethics Approval No. 2021-043). When the tumor volume reached 100 mm^3, fluorescence imaging was performed at different time points after intravenous injection of QTCy7-Ac. […] To test this hypothesis, the mice were executed and dissected 2.5 h after intravenous injection, and the fluorescence imaging of the main organs and tumor was performed.
DMEM medium was replaced with saline to prevent false positive interference. […] Then the confocal fluorescence imaging was carried out and recorded with a 10 × objective lens.
Cytotoxicity was tested by the reduction of methyl thiazolyl tetrazolium to formazan by succinic acid dehydrogenase in the mitochondria of living cells (MTT assay). […] The MTT solution was carefully removed and 100 μL DMSO was added to dissolve formazan, and the absorbance of each well was measured by a multifunctional microplate reader at 570 nm and 630 nm. […]

In the case of `CCOC(=O)C1=C/C(=C\C=C2/Sc3ccccc3N2CC)C(=O)C(/C=C/c2sc3ccccc3[n+]2CC)=C1` [QTCy7-Ac], the “time at which tumor region is lit up” value (after intravenous injection, 200 μM 100 μL) is reported as “around 60 min” and the “route of metabolism / organ distribution by ex vivo fluorescence” value (organs and tumor 2.5 h after intravenous injection) is reported as “metabolized primarily through the kidney; also recorded: non-negligible fluorescence signal stronger than the liver”.

Reference: article PMC10451034, “Highly Efficient Photosensitizers with Molecular Vibrational Torsion for Cancer Photodynamic Therapy” (ACS Central Science, 2023)
